Patent publication US10988477B2 (Merck Patent GmbH, priority 2018, dated 2021)
pIC50, pKi: −log10 of the molar value.

Key:
GCN2 kinase = GCN2 kinase (Homo sapiens, UniProt Q9P2K8); experiment: GCN2 enzyme inhibition assay (Transcreener ADP2 fluorescence polarization); format: biochemical; conditions: 280 μM ATP
Procedure, shortened: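 Run at 25 °C in 25 mM Tris-HCl pH 7.5, 50 mM NaCl, 10 mM MgCl2, 1 mM DTT with 4 nM GCN2, 280 μM ATP and 200 μM (RS)7 peptide; compound (0–8 μM final) preincubated 10 min, reaction 1 h. ADP read by antibody/tracer FP; IC50 and Ki(app) from tight-binding fit.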

[1] = biological target: intracellular GCN2 (phosphorylation of the GCN2 substrate eIF2α) (Homo sapiens, UniProt Q9P2K8); experiment: GCN2 cellular inhibition assay (AlphaScreen SureFire P-eIF2α Ser51, borrelidin-treated U2OS cells); format: cell-based; conditions: biomarker assay, phosphorylated eIF2α Ser51 in borrelidin-treated U2OS cells
Chain of intracellular GCN2 (phosphorylation of the GCN2 substrate eIF2α) (Q9P2K8 whole entry): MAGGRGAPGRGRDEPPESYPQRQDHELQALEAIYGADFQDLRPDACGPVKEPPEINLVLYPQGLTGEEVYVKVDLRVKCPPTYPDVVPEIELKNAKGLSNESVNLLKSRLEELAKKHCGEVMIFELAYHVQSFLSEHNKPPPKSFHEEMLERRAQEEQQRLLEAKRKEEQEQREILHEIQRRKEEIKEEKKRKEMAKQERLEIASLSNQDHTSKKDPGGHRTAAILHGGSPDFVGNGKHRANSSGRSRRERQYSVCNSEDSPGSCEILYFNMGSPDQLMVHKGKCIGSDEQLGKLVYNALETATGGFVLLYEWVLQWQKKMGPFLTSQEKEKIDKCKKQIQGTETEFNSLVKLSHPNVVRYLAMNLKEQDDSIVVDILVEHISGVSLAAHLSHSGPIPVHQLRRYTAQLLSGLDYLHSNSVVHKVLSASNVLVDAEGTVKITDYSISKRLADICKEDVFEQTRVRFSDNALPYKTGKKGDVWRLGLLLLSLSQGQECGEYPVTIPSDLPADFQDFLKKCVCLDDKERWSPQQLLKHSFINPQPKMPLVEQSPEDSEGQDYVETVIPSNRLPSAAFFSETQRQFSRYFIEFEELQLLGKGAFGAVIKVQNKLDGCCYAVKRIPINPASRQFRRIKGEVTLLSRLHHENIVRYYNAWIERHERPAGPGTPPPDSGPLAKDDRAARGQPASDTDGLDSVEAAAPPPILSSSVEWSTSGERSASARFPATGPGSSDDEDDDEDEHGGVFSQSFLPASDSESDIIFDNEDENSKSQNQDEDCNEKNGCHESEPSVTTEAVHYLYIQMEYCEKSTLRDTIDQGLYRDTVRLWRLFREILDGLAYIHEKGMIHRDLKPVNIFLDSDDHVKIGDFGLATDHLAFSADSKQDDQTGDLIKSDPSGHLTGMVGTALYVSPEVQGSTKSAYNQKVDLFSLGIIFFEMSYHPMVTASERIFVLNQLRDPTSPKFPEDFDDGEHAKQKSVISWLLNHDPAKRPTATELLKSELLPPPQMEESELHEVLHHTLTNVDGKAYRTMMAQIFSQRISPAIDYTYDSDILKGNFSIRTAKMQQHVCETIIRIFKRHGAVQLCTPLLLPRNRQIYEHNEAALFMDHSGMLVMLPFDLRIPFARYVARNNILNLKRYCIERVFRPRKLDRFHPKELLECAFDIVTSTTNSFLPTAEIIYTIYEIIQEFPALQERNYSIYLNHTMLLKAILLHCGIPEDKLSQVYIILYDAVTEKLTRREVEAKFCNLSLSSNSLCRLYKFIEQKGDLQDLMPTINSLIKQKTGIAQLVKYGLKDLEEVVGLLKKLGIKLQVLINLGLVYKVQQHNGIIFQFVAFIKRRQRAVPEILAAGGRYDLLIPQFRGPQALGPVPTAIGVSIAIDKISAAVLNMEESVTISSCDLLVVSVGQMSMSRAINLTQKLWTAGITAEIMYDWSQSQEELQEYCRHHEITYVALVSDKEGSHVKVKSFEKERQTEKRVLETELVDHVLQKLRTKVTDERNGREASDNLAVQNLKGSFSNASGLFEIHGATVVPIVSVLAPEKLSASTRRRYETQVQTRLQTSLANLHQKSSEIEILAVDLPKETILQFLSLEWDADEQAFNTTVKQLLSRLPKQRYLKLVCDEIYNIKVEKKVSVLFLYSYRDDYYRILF
Procedure, shortened: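 Read-out: AlphaScreen SureFire phospho-eIF2α (Ser51) signal in U2OS lysates. Cells get 4-fold compound dilutions (top 40 μM final) plus 10 μM borrelidin, 1 h, 37 °C. Percent inhibition is relative to borrelidin-alone controls.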

[2] = compounds of Formula II, 4 nM GCN2 kinase
[3] = Enzyme activity for compounds of Formula IV, Ki(app), 25° C.

Chain of GCN2 kinase (Q9P2K8 whole entry): as above

SMILES	pKi (GCN2 kinase; [2])	pIC50 ([1]; compounds of Formula II)	pKi (GCN2 kinase; [3])	pIC50 ([1]; compounds of Formula IV)	pIC50 (GCN2 kinase; compounds of Formula IV, 4 nM GCN2 kinase)
CC(O)c1ccc2ncc(-c3cc(N4C[C@@H](CNS(C)(=O)=O)C(F)(F)[C@@H](C)C4)ncn3)n2n1 (stereo partly drawn) [II-337, N-(((3S,5S)-4,4-Difluoro-1-(6-(6-(1-hydroxyethyl)imidazo[1,2-b]pyridazin-3-yl)pyrimidin-4-yl)-5-methylpiperidin-3-yl)methyl)methanesulfonamide]	6.00 to 8.00	< 5.30			
CN(C)CC(=O)N(CC1CCCN(c2cc(-c3cnc4ccc(C(F)F)nn34)ncn2)C1)S(C)(=O)=O (stereo not shown) [II-456, N-((1-(6-(6-(Difluoromethyl)imidazo[1,2-b]pyridazin-3-yl)pyrimidin-4-yl)piperidin-3-yl)methyl)-2-(dimethylamino)-N-(methylsulfonyl)acetamide]	6.00 to 8.00	> 6.30			
CS(=O)(=O)NCC1CC(O)CN(c2cc(-c3cnc4ccc(C(F)F)nn34)ccn2)C1 (stereo not shown) [II-40, N-((1-(4-(6-(Difluoromethyl)imidazo[1,2-b]pyridazin-3-yl)pyridin-2-yl)-5-hydroxypiperidin-3-yl)methyl)methanesulfonamide]	> 8.00	> 6.30			
CS(=O)(=O)N1CCC2(CCCCN2c2cc(-c3cnc4ccc(C(F)F)nn34)ncn2)C1 (stereo not shown) [II-256, 6-(6-(6-(Difluoromethyl)imidazo[1,2-b]pyridazin-3-yl)pyrimidin-4-yl)-2-(methylsulfonyl)-2,6-diazaspiro[4.5]decane]	6.00 to 8.00	< 5.30			
FC(F)c1ccc2ncc(-c3ccnc(N4CCn5cnnc5C4)c3)n2n1 [II-174, 7-(4-(6-(Difluoromethyl)imidazo[1,2-b]pyridazin-3-yl)pyridin-2-yl)-5,6,7,8-tetrahydro-[1,2,4]triazolo[4,3-a]pyrazine]	6.00 to 8.00	< 5.30			
Cc1noc([C@@H]2CN(c3cc(-c4cnc5ccc(C(F)(F)F)nn45)ccn3)C[C@H](C)O2)n1 [II-739]	6.00 to 8.00	> 6.30			
CN(C)C1CN(c2cc(-c3cnc4ccc(C(F)F)nn34)ncn2)CC(CNS(C)(=O)=O)C1(F)F (stereo not shown) [II-260, N-((1-(6-(6-(Difluoromethyl)imidazo[1,2-b]pyridazin-3-yl)pyrimidin-4-yl)-5-(dimethylamino)-4,4-difluoropiperidin-3-yl)methyl)methanesulfonamide]	6.00 to 8.00	5.30 to 6.30			
CN(CC1CCCN(c2cc(-c3cnc4ccc(C(F)F)nn34)ncn2)C1)S(N)(=O)=O (stereo not shown) [II-311, 1-((1-(6-(6-(Difluoromethyl)imidazo[1,2-b]pyridazin-3-yl)pyrimidin-4-yl)piperidin-3-yl)methyl)-1-methylsulfuric diamide]	> 8.00	> 6.30			
CC(NS(C)(=O)=O)C1CN(c2cc(-c3cnc4ccc(C(F)F)nn34)ncn2)CCN1C (stereo not shown) [II-474, N-(1-(4-(6-(6-(Difluoromethyl)imidazo[1,2-b]pyridazin-3-yl)pyrimidin-4-yl)-1-methylpiperazin-2-yl)ethyl)methanesulfonamide]	6.00 to 8.00	5.30 to 6.30			
CS(=O)(=O)NCC1CCN(c2cc(-c3cnc4ccc(C(F)F)nn34)ncn2)C1 (stereo not shown) [II-394, N-((1-(6-(6-(Difluoromethyl)imidazo[1,2-b]pyridazin-3-yl)pyrimidin-4-yl)pyrrolidin-3-yl)methyl)methanesulfonamide]	6.00 to 8.00	5.30 to 6.30			
CS(C)(=O)=NC[C@@H]1CN(c2cc(-c3cnc4ccc(C(F)F)nn34)ncn2)CCO1 [II-10, [(2S)-4-[6-[6-(Difluoromethyl)imidazo[1,2-b]pyridazin-3-yl]pyrimidin-4-yl]morpholin-2-yl]methylimino-dimethyl-oxo-sulfane]	6.00 to 8.00	< 5.30			
O=C1NCC2CN(c3cc(-c4cnc5ccc(C(F)F)nn45)ncn3)CCN12 (stereo not shown) [II-46, 7-(6-(6-(Difluoromethyl)imidazo[1,2-b]pyridazin-3-yl)pyrimidin-4-yl)hexahydroimidazo[1,5-a]pyrazin-3(2H)-one]	6.00 to 8.00	< 5.30			
CC1=C(F)C(CNS(C)(=O)=O)CN(c2cc(-c3cnc4ccc(C(F)F)nn34)ncn2)C1 (stereo not shown) [II-538, N-((1-(6-(6-(Difluoromethyl)imidazo[1,2-b]pyridazin-3-yl)pyrimidin-4-yl)-4-fluoro-5-methyl-1,2,3,6-tetrahydropyridin-3-yl)methyl)methanesulfonamide]	> 8.00	> 6.30			
CS(C)(=O)=NC[C@@H]1CN(c2cc(-c3cnc4ccc(C(F)(F)F)nn34)ncn2)CCO1 [II-406, (S)-Dimethyl(((4-(6-(6-(trifluoromethyl)imidazo[1,2-b]pyridazin-3-yl)pyrimidin-4-yl)morpholin-2-yl)methyl)imino)-λ^6-sulfanone]	< 6.00	< 5.30			
CN(C[C@@H]1CN(c2cc(-c3cnc4ccc(C(F)F)nn34)ncn2)CCO1)S(C)(=O)=O [II-290, (S)—N-((4-(6-(6-(Difluoromethyl)imidazo[1,2-b]pyridazin-3-yl)pyrimidin-4-yl)morpholin-2-yl)methyl)-N-methylmethanesulfonamide]	6.00 to 8.00	5.30 to 6.30			
COC1CC(CNS(C)(=O)=O)CN(c2cc(-c3cnc4ccc(C(F)F)nn34)ncn2)C1 (single isomer, unassigned) [II-233, N-((1-(6-(6-(Difluoromethyl)imidazo[1,2-b]pyridazin-3-yl)pyrimidin-4-yl)-5-methoxypiperidin-3-yl)methyl)methanesulfonamide]	> 8.00	> 6.30			
Clc1ccc2ncc(-c3ccnc(N4CCOCC4)c3)n2n1 [II-194, 4-(4-(6-Chloroimidazo[1,2-b]pyridazin-3-yl)pyridin-2-yl)morpholine]	6.00 to 8.00	< 5.30			
CC1(O)CCN(c2cc(-c3cnc4ccc(C(F)F)nn34)ncn2)CC1CNS(C)(=O)=O (stereo not shown) [II-240, N-((1-(6-(6-(Difluoromethyl)imidazo[1,2-b]pyridazin-3-yl)pyrimidin-4-yl)-4-hydroxy-4-methylpiperidin-3-yl)methyl)methanesulfonamide]	> 8.00	> 6.30			
CN1CCN(c2cc(-c3cnc4ccc(C(F)F)nn34)ncn2)CC1CC(N)=O (stereo not shown) [II-492, 2-(4-(6-(6-(Difluoromethyl)imidazo[1,2-b]pyridazin-3-yl)pyrimidin-4-yl)-1-methylpiperazin-2-yl)acetamide]	6.00 to 8.00	5.30 to 6.30			
CC(=O)N1CCCC(c2cc(-c3cnc4ccc(C(F)F)nn34)ncn2)C1 (stereo not shown) [II-222, 1-(3-(6-(6-(Difluoromethyl)imidazo[12-b]pyridazin-3-yl)pyrimidin-4-yl)piperidin-1-yl)ethan-1-one]	6.00 to 8.00	5.30 to 6.30			
CS(=O)(=O)N1CC2CCN(c3cc(-c4cnc5ccc(C(F)F)nn45)ncn3)C2C1 (stereo not shown) [II-282, 6-(Difluoromethyl)-3-(6-(5-(methylsulfonyl)hexahydropyrrolo[3,4-b]pyrrol-1 (2H)-yl)pyrimidin-4-yl)imidazo[1,2-b]pyridazine]	6.00 to 8.00	< 5.30			

Now from value to compound:

pKi (GCN2 kinase; [2])	pIC50 ([1]; compounds of Formula II)	pKi (GCN2 kinase; [3])	pIC50 ([1]; compounds of Formula IV)	pIC50 (GCN2 kinase; compounds of Formula IV, 4 nM GCN2 kinase)	SMILES
		7.00 to 8.00	5.30 to 6.30		CC1CN(c2ccnc(-c3cnc4cnc(C#N)cn34)n2)CC(c2cn[nH]c2)O1 (single isomer, unassigned) [IV-191, 3-(4-(2-Methyl-6-(1H-pyrazol-4-yl)morpholino)pyrimidin-2-yl)imidazo[1,2-a]pyrazine-6-carbonitrile]
			< 5.30	6.00 to 8.00	Cc1n[nH]cc1[C@H]1C[C@H](O)CN(c2ccnc(-c3cnc4cnc(C(F)(F)F)cn34)n2)C1 [IV-774, (3S,5R)-5-(3-methyl-1H-pyrazol-4-yl)-1-(2-(6-(trifluoromethyl)imidazo[1,2-a]pyrazin-3-yl)pyrimidin-4-yl)piperidin-3-ol]
		7.00 to 8.00	5.30 to 6.30		CC(C)(O)C1CC(c2cn[nH]c2)CN(c2ccnc(-c3cnc4cnc(C(F)(F)F)cn34)n2)C1 (single isomer, unassigned) [IV-683, 2-(5-(1H-Pyrazol-4-yl)-1-(2-(6-(trifluoromethyl)imidazo[1,2-a]pyrazin-3-yl)pyrimidin-4-yl)piperidin-3-yl)propan-2-ol]
		6.00 to 7.00	< 5.30		C=Cc1cn2c(-c3nccc(N4CCN(C(C)=O)CC4)n3)cnc2cn1 [IV-37, 1-(4-(2-(6-Vinylimidazo[1,2-a]pyrazin-3-yl)pyrimidin-4-yl)piperazin-1-yl)ethan-1-one]
		6.00 to 7.00	< 5.30		FC(F)c1cn2c(-c3nccc(N4CCC(c5cc[nH]n5)C4)n3)cnc2cn1 (stereo not shown) [IV-64, 3-(4-(3-(1H-Pyrazol-3-yl)pyrrolidin-1-yl)pyrimidin-2-yl)-6-(difluoromethyl)imidazo[1,2-a]pyrazine]
		6.00 to 7.00	< 5.30		OCC1CCCN1c1ccnc(-c2cnc3cnc(C(F)(F)F)cn23)n1 (stereo not shown) [IV-436, (1-(2-(6-(Trifluoromethyl)imidazo[1,2-a]pyrazin-3-yl)pyrimidin-4-yl)pyrrolidin-2-yl)methanol]
		> 8.00	> 6.30		CC1C(c2cn[nH]c2)CCCN1c1ccnc(-c2cnc3cnc(C(F)(F)F)cn23)n1 (single isomer, unassigned) [IV-420, 3-(4-(2-Methyl-3-(1H-pyrazol-4-yl)piperidin-1-yl)pyrimidin-2-yl)-6-(trifluoromethyl)imidazo[1,2-a]pyrazine]
		6.00 to 7.00	< 5.30		NC(=O)C1COCCN(c2ccnc(-c3cnc4cnc(C(F)(F)F)cn34)n2)C1 (stereo not shown) [IV-425, 4-(2-(6-(Trifluoromethyl)imidazo[1,2-a]pyrazin-3-yl)pyrimidin-4-yl)-1,4-oxazepane-6-carboxamide]
